Experimental data as given in patent publication US11261186B2, “Biaryl derivative as GPR120 agonist” (LG CHEM, LTD., priority 2014, dated 2022).

Biological target: T1, hGPR120 (Homo sapiens, UniProt Q5NUL3)
T1 construct: expressed in transfected cells; host or cells: CHO-K1
T1 sequence (Q5NUL3 1-361): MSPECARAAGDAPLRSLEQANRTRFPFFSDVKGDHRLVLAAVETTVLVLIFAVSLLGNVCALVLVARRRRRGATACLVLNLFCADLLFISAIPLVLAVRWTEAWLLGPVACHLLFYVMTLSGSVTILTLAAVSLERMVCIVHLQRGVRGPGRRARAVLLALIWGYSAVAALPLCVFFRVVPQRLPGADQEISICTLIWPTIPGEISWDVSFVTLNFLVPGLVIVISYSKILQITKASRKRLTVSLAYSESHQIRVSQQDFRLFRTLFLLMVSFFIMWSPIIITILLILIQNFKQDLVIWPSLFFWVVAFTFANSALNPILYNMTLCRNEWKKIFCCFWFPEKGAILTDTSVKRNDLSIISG
Experiment: Measurement of Activity of GPR120 Agonist (Cell-Based Assay), Calcium 5 dye fluorescence
Conditions: CHO-K1 cells expressing Ga16 and hGPR120
Summary of the method: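 CHO-K1 cells co-expressing Gα16 and hGPR120 were seeded, cultured 18 h at 37 °C, then loaded 1 h with Calcium 5 dye. Serially diluted agonists (final 0.5% DMSO) were added and fluorescence read at Ex 485/Em 525 nm, expressed as percent relative to 1% DMSO-only wells.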

Structure (SMILES)	EC50 [nM]
O=C(O)CCCOc1c(F)cc(-c2cccc3c2OC2(CCCC2)O3)cc1F [Example 287, 4-(2,6-difluoro-4-spiro[1,3-benzodioxol-2,1′-cyclopentan]-4-yl-phenoxy)butanoic acid]	< 200
O=C(O)CCCOc1ccc(-c2cccc3c2OC2(CCCC2)O3)cc1 [Example 288, 4-(4-spiro[1,3-benzodioxol-2,1′-cyclopentan]-4-ylphenoxy)butanoic acid]	< 200
O=C(O)CCCOc1ccc(-c2cccc3c2OC2(CCCC2)O3)cc1F [Example 289, 4-(2-fluoro-4-spiro[1,3-benzodioxol-2,1′-cyclopentan]-4-yl-phenoxy)butanoic acid]	200 to 2000
O=C(O)CCCOc1c(F)cc(-c2cccc3c2OC(F)(F)O3)cc1F [Example 290, 4-[4-(2,2-difluoro-benzo[1,3]dioxol-4-yl)-2,6-difluoro-phenoxy]-butyric acid]	< 200
CC1(C)Cc2c(cccc2-c2cc(F)c(OCCCC(=O)O)c(F)c2)O1 [Example 291, 4-[4-(2,2-dimethyl-2,3-dihydro-benzofuran-4-yl)-2,6-difluoro-phenoxy]-butyric acid]	< 200
O=C(O)CCCOc1c(F)cc(-c2cccnc2SC2CCCCC2)cc1F [Example 292, 4-[4-(2-cyclohexylsulfanyl-pyridin-3-yl)-2,6-difluoro-phenoxy]-butyric acid]	2000 to 20000
O=C(O)CCSCc1ccc(-c2cccnc2OC2CCCC2)cc1 [Example 293, 3-[4-(2-cyclopentyloxy-pyridin-3-yl)-benzylsulfanyl]-propionic acid]	200 to 2000
O=C(O)CC1CCN(c2c(F)cc(-c3cccc(OC4CCC4)n3)cc2F)CC1 [Example 294, 2-[1-[4-[6-(cyclobutoxy)-2-pyridyl]-2,6-difluoro-phenyl]-4-piperidyl]acetic acid]	< 200
O=C(O)CC1CCN(c2c(F)cc(-c3cccc(OC4CCCC4)n3)cc2F)CC1 [Example 299, 2-[1-[4-[6-(cyclopentoxy)-2-pyridyl]-2,6-difluoro-phenyl]-4-piperidyl]acetic acid]	200 to 2000
O=C(O)CC1CCN(c2c(F)cc(-c3cccc(OC4CCC4)c3)cc2F)CC1 [Example 300, 2-[1-[4-[3-(cyclobutoxy)phenyl]-2,6-difluoro-phenyl]-4-piperidyl]acetic acid]	200 to 2000

Next, values leading:

EC50 [nM]	Structure (SMILES)
< 200	CCCOc1cccc(-c2cc(F)c(N3CCC(CC(=O)O)CC3)c(F)c2)n1 [Example 295, 2-[1-[2,6-difluoro-4-(6-propoxy-2-pyridyl)phenyl]-4-piperidyl]acetic acid]
< 200	CC(C)Oc1cccc(-c2cc(F)c(N3CCC(CC(=O)O)CC3)c(F)c2)n1 [Example 296, 2-[1-[2,6-difluoro-4-(6-isopropoxy-2-pyridyl)phenyl]-4-piperidyl]acetic acid]
200 to 2000	O=C(O)CC1CCN(c2c(F)cc(-c3cccc(SC4CCC4)n3)cc2F)CC1 [Example 297, 2-[1-[4-(6-cyclobutylsulfanyl-2-pyridyl)-2,6-difluoro-phenyl]-4-piperidyl]acetic acid]
200 to 2000	CCCSc1cccc(-c2cc(F)c(N3CCC(CC(=O)O)CC3)c(F)c2)n1 [Example 298, 2-[1-[2,6-difluoro-4-(6-propylsulfanyl-2-pyridyl)phenyl]-4-piperidyl]acetic acid]
200 to 2000	O=C(O)CC1CCN(c2c(F)cc(-c3cccc(OCC4CC4)c3)cc2F)CC1 [Example 301, 2-[1-[4-[3-(cyclopropylmethoxy)phenyl]-2,6-difluoro-phenyl]-4-piperidyl]acetic acid]
200 to 2000	CC(C)OCc1cccc(-c2cc(F)c(N3CCC(CC(=O)O)CC3)c(F)c2)c1 [Example 302, 2-[1-[2,6-difluoro-4-[3-(isopropoxymethyl)phenyl]phenyl]-4-piperidyl]acetic acid]
200 to 2000	CCOCc1cccc(-c2cc(F)c(N3CCC(CC(=O)O)CC3)c(F)c2)c1 [Example 303, 2-[1-[4-[3-(ethoxymethyl)phenyl]-2,6-difluoro-phenyl]-4-piperidyl]acetic acid]
